{"source": "patent US12568963B2", "about": "“Compounds and compositions for nematode treatment” (IOWA STATE UNIVERSITY RESEARCH FOUNDATION, INC., priority 2020, dated 2026)", "key": {"[1]": {"test_system": "SCN", "settings": "for SCN Population Densities 34 DAP / SCN Population Densities 64 DAP / SCN Population Densities harvest / Biomass at harvest, total / Biomass at harvest, seed: susceptible soybean; for SCN Population Densities 34 DAP: 34 days after planting; for SCN Population Densities 64 DAP: 64 days after planting; for Biomass at harvest, total: dry weight of all plants per microplot; for Biomass at harvest, seed: seed weight per microplot", "from_the_text": "Microplots were constructed by inserting 1-m-diameter by 0.25-m-tall circles of plastic drainage pipe into the soil in a field on a university-owned research farm located 10 km (6 miles) due west of Ames, IA. The field was not infested with SCN prior to being infested for the experiment.\nThe soil in the top 20 cm of each microplot was loosened, turned over, and artificially infested with approximately 570,000 SCN eggs contained within cysts in 1 liter of soil from greenhouse cultures. The SCN inoculum was applied in a band across the middle of the microplot (FIG. 5A), then 1.65 L of treatment solution were applied over the infested soil. […] Two different control treatments consisted of microplots receiving 1.65 L of autoclaved, deionized water and microplots receiving 1.65 L of the solvent used to dilute the compounds. The SCN-infested soil inoculum and applied liquid treatment were rototilled into the soil in each microplot, then 40 seeds of the SCN-susceptible variety “Williams 82” were planted in a single, central row within each microplot (FIG. 5B). Similarly, seeds of the SCN-resistant variety “Jack” were planted in microplots infested with SCN inoculum and treated with water as a third control treatment. There were four replications of each of the six treatments arranged in a randomized complete block design. Microplots were spaced 1 m apart in rows separated by 3 m to avoid cross contamination among microplots (FIG. 5F). Plants were grown for the entire 2020 growing season (FIGS. 5C through 5H).\nThe total number of plants growing in each microplot were counted (i.e., a “stand count”) 34 days after planting. A total of five soil cores, 2 cm in diameter and 15 to 20 cm deep, were collected from the root zone on either side of the row of soybean plants in each microplot 34 days after planting, 64 days after planting, and when the plants were removed from the microplots to determine the SCN population densities. SCN requires approximately 30 days to complete a single generation. […] SCN cysts (dead females full of eggs) were extracted from the soil samples using a wet sieving method, and eggs were released from the recovered cysts by crushing cysts with a motorized rubber stopper. Recovered eggs were stained with acid fuchsin and counted under a microscope to determine their number per 100 cm^3 of soil.\nThe stems of soybean plants in each microplot were cut at the soil line, and all plants from each microplot were placed in large paper bags and stored in an unheated shed until they were further processed. The dry weight of all plants in each microplot was determined (total plant biomass at harvest), and then all plants from each microplot were fed through a plot combine to collect and weigh the seeds (seed biomass)."}, "[2]": {"test_system": "SCN eggs", "experiment": "SCN hatching assay (continuous and short-term exposure)", "settings": "in vivo", "procedure": "Two similar assays ran synchronously. For both, approximately 300 eggs were pipetted onto 20 mm-diameter plastic microsieves and placed in a six-well plate and incubated at 25° C. in 3 mL of treatment (FIG. 1A). In a continuous exposure assay, eggs (FIG. 1B) were incubated in treatments for 15 days, and in a short-term exposure assay, eggs were incubated in treatments for one day, rinsed, then incubated in deionized water for 14 days. The number of hatched second-stage juveniles (FIG. 1B) was determined for both assays after 3, 6, 9, 12, and 15 days when the microsieves containing the eggs were moved to an empty well and fresh treatment solution was added. […] Compounds were tested over twelve different experimental runs in total, with some tested three times, others twice, and some once.\nThe number of hatched and unhatched juveniles of SCN in each treatment were subjected to an analysis with a quasibinomial generalized linear model to estimate the percent hatching for each treatment in each individual experimental run. Then, a test of marginal means was done to determine the estimated percent hatching in each treatment over all runs. […] Analysis were performed on four different treatment groups: continuous 100 ppm, short term 100 ppm, continuous 10 ppm, and short term 10 ppm.\nBecause of the complexity of the experimental design and the large variation in hatch rates between different testing blocks, as well as the long duration over which testing has occurred, the statistical analysis is not straight-forward. First, within each block bi, the mean μi hatch rate (in percent) in the solvent control is calculated (in blocks with both short-term and continuous exposure, these two testing methods are analyzed independently). For each treatment hatch rate xj in block bi, a “hatching score” hij is the calculated as\nThe arcsine transformation is used to account for the fact that calculating the ratio of hatching is subject to non-linear effects. A general linear model is then used to account for additional block effects, and Dunnett's adjustment is used as the multiple comparison procedure to control the familywise error rate, as all treatments are compared to the solvent control. […] These controls were not used in the calculation of significance other than as controls common to each block in the unbalanced incomplete block design experiment.\nThe estimate column contains an estimate of the difference in hatch rate modulation between the solvent control and the treatment. This is estimated as a percentage hatch rate of the control. For reliability of the magnitude of the effect, more than one block is needed. Due to the high variation in solvent control hatch rates between blocks, some percentage modulations may fall outside the expected range (e.g., below −100%).\nDue to the arctangent/tangent conversions, the standard errors of the mean (column SE) are very rough estimates of the standard error. However, the p value column contains the actual p-values."}, "[3]": {"experiment": "Solubility in the solvent system / water", "format": "physicochemical", "experimental": "Several tested compounds were obtained commercially while others were synthesized from simple starting materials (see Example 1, supra). Compounds were dissolved in a solvent containing 0.08% ethanol, 0.08% TRITON™ X-100, and nano-purified water and were tested at 10 and 100 ppm.\nAlmost all compounds were tested at 100 ppm, provided they were sufficiently soluble in the solvent system at this concentration."}, "[4]": {"test_system": "M. incognita", "experiment": "RKN quick sand assay (cucumber root galling)", "format": "in vivo", "settings": "15 days after infestation with 2,000 M. incognita eggs; abamectin 100 ppm drench; solvent control 24%", "experimental": "Deionized water, 100 ppm abamectin, and solvent were used as controls. […] To date, compounds were tested in three different experimental runs, with some compounds being tested twice and others once. A beta regression model was used to estimate the percent of galling for each treatment in each run. As with the hatching data analyses, a test of marginal means was performed to determine the estimated percent of galling in each treatment over all runs."}}, "note": "Where “and” joins values, the source holds several entries; their conditions need not be identical. Identical values can stand only once. Like-named read-outs stand apart in the source and are kept apart here. Marks after values point to notes of the source that are not given here."}
{"compound": "Cc1ccc(C=C[N+](=O)[O-])cc1", "note": "[4-M-BNS, 4-methyl beta-nitrostyrene]", "values": [{"measurement": "SCN Population Densities 34 DAP", "setting": "[1]; 100 ppm solution", "value": "5,800 # eggs per 100 cm^3 soil"}, {"measurement": "SCN Population Densities 64 DAP", "setting": "[1]; 100 ppm solution", "value": "7,400 # eggs per 100 cm^3 soil"}, {"measurement": "SCN Population Densities harvest", "setting": "[1]; 100 ppm solution, at harvest", "value": "9,800 # eggs per 100 cm^3 soil"}, {"measurement": "Biomass at harvest, total", "setting": "[1]; 100 ppm solution", "value": 654, "unit": "g"}, {"measurement": "Biomass at harvest, seed", "setting": "[1]; 100 ppm solution", "value": 322, "unit": "g"}, {"measurement": "seed weights (analogous to grain yield) versus susceptible/water treatment", "setting": "[1]; in vivo", "value": "significantly greater"}, {"measurement": "soil SCN egg population densities 64 days after planting versus susceptible/water treatment", "setting": "[1]; in vivo", "value": "significantly lower"}]}
{"compound": "COc1cc(/C=C/C=O)ccc1O", "note": "[4H3MC]", "values": [{"measurement": "estimate (difference in hatch rate modulation between solvent control and treatment, as percentage hatch rate of the control)", "setting": "[2]", "value": "−55.3", "unit": "%"}]}
{"compound": "C(=C\\C1SCCS1)/c1ccccc1", "note": "[JSK3011]", "values": [{"measurement": "solubility in water", "setting": "[3]; not sufficiently soluble at 100 ppm in solvent system, only tested at 10 ppm", "value": "low solubility"}]}
{"compound": "O=C(/C=C/c1ccc(Cl)cc1)C1CC1", "note": "[JSK3087, 4-Chlorostyryl Cyclopropyl Ketone]", "values": [{"measurement": "soil SCN egg population densities 64 days after planting versus susceptible/water treatment", "setting": "[1]; 100 ppm solution, LSD alpha = 0.10", "value": "significantly lower"}, {"measurement": "SCN Population Densities 34 DAP", "setting": "[1]; 100 ppm solution", "value": "7,275 # eggs per 100 cm^3 soil"}, {"measurement": "SCN Population Densities 64 DAP", "setting": "[1]; 100 ppm solution", "value": "4,700 # eggs per 100 cm^3 soil"}, {"measurement": "SCN Population Densities harvest", "setting": "[1]; 100 ppm solution, at harvest", "value": "6,400 # eggs per 100 cm^3 soil"}, {"measurement": "Biomass at harvest, total", "setting": "[1]; 100 ppm solution", "value": 668, "unit": "g"}, {"measurement": "Biomass at harvest, seed", "setting": "[1]; 100 ppm solution", "value": 327, "unit": "g"}, {"measurement": "seed weights (analogous to grain yield) versus susceptible/water treatment", "setting": "[1]; at harvest", "value": "significantly greater"}]}
{"compound": "O=CC(Br)=Cc1ccccc1", "note": "[a-bromocinnamaldehyde]", "values": [{"measurement": "solubility in water", "setting": "[3]", "value": "low solubility"}]}
{"compound": "N#CC=Cc1ccccc1", "note": "[cinnamonitrile]", "values": [{"measurement": "estimate (difference in hatch rate modulation between solvent control and treatment, as percentage hatch rate of the control)", "setting": "[2]", "value": "−53.8", "unit": "%"}]}
{"compound": "CC(=O)C=Cc1ccccc1", "note": "[methyl styryl ketone]", "values": [{"measurement": "estimate (difference in hatch rate modulation between solvent control and treatment, as percentage hatch rate of the control)", "setting": "[2]", "value": "−75.4% and −85%"}]}
{"compound": "O=S(=O)([O-])[O-].[Zn+2]", "note": "[zinc sulfate, reference compound]", "values": [{"measurement": "estimate (difference in hatch rate modulation between solvent control and treatment, as percentage hatch rate of the control)", "setting": "[2]", "value": "54.7% and 54.9%"}]}
{"compound": "abamectin", "values": [{"measurement": "percentage galling of cucumber roots", "setting": "[4]", "value": 0, "unit": "%"}]}
